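How tested: cells in 96-well plates exposed to compound for 48 hours at five concentrations. GI50 is the concentration that inhibits growth by half. At the TGI there is no net growth.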
How the values were obtained:
Experiment in all cases: NCI anticancer screen, dose series, 48 h; in the data active = GI50 below about 0.43 µM; inactive = the rest
786-0 renal = test system: 786-0 renal
A498 renal = test system: A498 renal
A549 NSCLC = test system: A549 NSCLC
ACHN renal = test system: ACHN renal
BT-549 breast = test system: BT-549 breast
CAKI-1 renal = test system: CAKI-1 renal
CCRF-CEM leukemia = test system: CCRF-CEM leukemia
COLO 205 colon = test system: COLO 205 colon
DU-145 prostate = test system: DU-145 prostate
EKVX NSCLC = test system: EKVX NSCLC
HCC-2998 colon = test system: HCC-2998 colon
HCT-116 colon = test system: HCT-116 colon
HCT-15 colon = test system: HCT-15 colon
HL-60(TB) leukemia = test system: HL-60(TB) leukemia
HOP-62 NSCLC = test system: HOP-62 NSCLC
HOP-92 NSCLC = test system: HOP-92 NSCLC
HS 578T breast = test system: HS 578T breast
HT29 colon = test system: HT29 colon
IGROV1 ovarian = test system: IGROV1 ovarian
K-562 leukemia = test system: K-562 leukemia
KM12 colon = test system: KM12 colon
LOX IMVI melanoma = test system: LOX IMVI melanoma
MALME-3M melanoma = test system: MALME-3M melanoma
MCF7 breast = test system: MCF7 breast
MDA-MB-231 breast = test system: MDA-MB-231 breast
MDA-MB-435 = test system: MDA-MB-435
MOLT-4 leukemia = test system: MOLT-4 leukemia
NCI-H226 lung = test system: NCI-H226 lung
NCI-H23 lung = test system: NCI-H23 lung
NCI-H460 lung = test system: NCI-H460 lung
NCI-H522 lung = test system: NCI-H522 lung
NCI/ADR-RES ovarian = test system: NCI/ADR-RES ovarian
OVCAR-3 ovarian = test system: OVCAR-3 ovarian
OVCAR-4 ovarian = test system: OVCAR-4 ovarian
OVCAR-5 ovarian = test system: OVCAR-5 ovarian
OVCAR-8 ovarian = test system: OVCAR-8 ovarian
PC-3 prostate = test system: PC-3 prostate
RPMI-8226 leukemia = test system: RPMI-8226 leukemia
SF-268 CNS = test system: SF-268 CNS
SF-295 CNS = test system: SF-295 CNS
SF-539 CNS = test system: SF-539 CNS
SK-MEL-2 melanoma = test system: SK-MEL-2 melanoma
SK-MEL-28 melanoma = test system: SK-MEL-28 melanoma
SK-MEL-5 melanoma = test system: SK-MEL-5 melanoma
SK-OV-3 ovarian = test system: SK-OV-3 ovarian
SN12C renal = test system: SN12C renal
SNB-19 CNS = test system: SNB-19 CNS
SW-620 colon = test system: SW-620 colon
T-47D breast = test system: T-47D breast
TK-10 renal = test system: TK-10 renal
U251 CNS = test system: U251 CNS
UACC-257 melanoma = test system: UACC-257 melanoma
UACC-62 melanoma = test system: UACC-62 melanoma
UO-31 renal = test system: UO-31 renal
M14 melanoma = test system: M14 melanoma
RXF 393 renal = test system: RXF 393 renal
SNB-75 CNS = test system: SNB-75 CNS
SR leukemia = test system: SR leukemia

Oc1cccc2ccc(N/N=C/c3cc(CN4CCCCC4)c(O)c4ncccc34)nc12
1610 nM: TGI (LOX IMVI melanoma)
1670 nM: TGI (NCI-H460 lung)
1460 nM: TGI (HT29 colon)
1740 nM: TGI (OVCAR-3 ovarian)
1510 nM: TGI (HCT-15 colon)
3520 nM: TGI (SW-620 colon)
1360 nM: TGI (COLO 205 colon)
1290 nM: TGI (HL-60(TB) leukemia)
1450 nM: TGI (NCI-H23 lung)
81.4 nM: TGI (SK-MEL-2 melanoma)
inactive: GI50 (A498 renal) 433 nM
6020 nM: TGI (BT-549 breast)
653 nM: TGI (SK-OV-3 ovarian)
1760 nM: TGI (HCC-2998 colon)
85.7 nM: TGI (HOP-92 NSCLC)
11100 nM: TGI (K-562 leukemia)
2140 nM: TGI (CAKI-1 renal)
10800 nM: TGI (CCRF-CEM leukemia)
2680 nM: TGI (SF-539 CNS)
1060 nM: TGI (NCI/ADR-RES ovarian)
14700 nM: TGI (EKVX NSCLC)
15900 nM: TGI (SK-MEL-28 melanoma)
18700 nM: TGI (SNB-19 CNS)
8040 nM: TGI (HOP-62 NSCLC)
2060 nM: TGI (OVCAR-8 ovarian)
9290 nM: TGI (RPMI-8226 leukemia)
1710 nM: TGI (HCT-116 colon) | TGI (UO-31 renal)
55.9 nM: TGI (SK-MEL-5 melanoma)
1850 nM: TGI (KM12 colon)
2030 nM: TGI (MDA-MB-231 breast)
4900 nM: TGI (UACC-62 melanoma)
13400 nM: TGI (SF-268 CNS)
1150 nM: TGI (A549 NSCLC)
1210 nM: TGI (NCI-H522 lung)
14100 nM: TGI (A498 renal)
3820 nM: TGI (MOLT-4 leukemia)
1190 nM: TGI (ACHN renal)
29400 nM: TGI (HS 578T breast)
1730 nM: TGI (MDA-MB-435)
1700 nM: TGI (786-0 renal)
active: GI50 (786-0 renal) 82.6 nM | GI50 (A549 NSCLC) 36.5 nM | GI50 (ACHN renal) 34.4 nM | GI50 (BT-549 breast) 57.4 nM | GI50 (CAKI-1 renal) 309 nM | GI50 (CCRF-CEM leukemia) 55.8 nM | GI50 (COLO 205 colon) 65.1 nM | GI50 (DU-145 prostate) 109 nM | GI50 (EKVX NSCLC) 299 nM | GI50 (HCC-2998 colon) 49.9 nM | GI50 (HCT-116 colon) 42.6 nM | GI50 (HCT-15 colon) 33.9 nM | GI50 (HL-60(TB) leukemia) 34.5 nM | GI50 (HOP-62 NSCLC) 45.6 nM | GI50 (HOP-92 NSCLC) 16.5 nM | GI50 (HS 578T breast) 147 nM | GI50 (HT29 colon) 324 nM | GI50 (IGROV1 ovarian) 173 nM | GI50 (K-562 leukemia) 38.3 nM | GI50 (KM12 colon) 44.9 nM | GI50 (LOX IMVI melanoma) 55.3 nM | GI50 (MALME-3M melanoma) 223 nM | GI50 (MCF7 breast) 34 nM | GI50 (MDA-MB-231 breast) 99.1 nM | GI50 (MDA-MB-435) 44.4 nM | GI50 (MOLT-4 leukemia) 59.7 nM | GI50 (NCI-H226 lung) 410 nM | GI50 (NCI-H23 lung) 48.5 nM | GI50 (NCI-H460 lung) 38.6 nM | GI50 (NCI-H522 lung) 31.4 nM | GI50 (NCI/ADR-RES ovarian) 46.3 nM | GI50 (OVCAR-3 ovarian) 85.8 nM | GI50 (OVCAR-4 ovarian) 162 nM | GI50 (OVCAR-5 ovarian) 63.9 nM | GI50 (OVCAR-8 ovarian) 50.8 nM | GI50 (PC-3 prostate) 41.7 nM | GI50 (RPMI-8226 leukemia) 37.1 nM | GI50 (SF-268 CNS) 63.5 nM | GI50 (SF-295 CNS) 68.6 nM | GI50 (SF-539 CNS) 48.1 nM | GI50 (SK-MEL-2 melanoma) 28.8 nM | GI50 (SK-MEL-28 melanoma) 362 nM | GI50 (SK-MEL-5 melanoma) 23.9 nM | GI50 (SK-OV-3 ovarian) 43.5 nM | GI50 (SN12C renal) 93.1 nM | GI50 (SNB-19 CNS) 41.3 nM | GI50 (SW-620 colon) 36.2 nM | GI50 (T-47D breast) 192 nM | GI50 (TK-10 renal) 52.7 nM | GI50 (U251 CNS) 32.9 nM | GI50 (UACC-257 melanoma) 256 nM | GI50 (UACC-62 melanoma) 45.9 nM | GI50 (UO-31 renal) 29.2 nM
1860 nM: TGI (PC-3 prostate)
18400 nM: TGI (IGROV1 ovarian)
3180 nM: TGI (DU-145 prostate)
1040 nM: TGI (UACC-257 melanoma)
3070 nM: TGI (SF-295 CNS)
12900 nM: TGI (SN12C renal)
2900 nM: TGI (NCI-H226 lung)
13000 nM: TGI (OVCAR-5 ovarian)
1600 nM: TGI (OVCAR-4 ovarian)
11000 nM: TGI (TK-10 renal)
1280 nM: TGI (MCF7 breast) | TGI (U251 CNS)
4490 nM: TGI (MALME-3M melanoma)
14900 nM: TGI (T-47D breast)

Cn1cc(-c2ccc3occ(-c4cccc(-c5ccncc5)c4)c3n2)cn1
1630 nM: TGI (SK-MEL-5 melanoma)
5540 nM: TGI (SF-539 CNS)
> 100000 nM: TGI (786-0 renal) | TGI (A549 NSCLC) | TGI (ACHN renal) | TGI (CAKI-1 renal) | TGI (CCRF-CEM leukemia) | TGI (COLO 205 colon) | TGI (DU-145 prostate) | TGI (EKVX NSCLC) | TGI (HCC-2998 colon) | TGI (HCT-116 colon) | TGI (HCT-15 colon) | TGI (HOP-62 NSCLC) | TGI (HOP-92 NSCLC) | TGI (HT29 colon) | TGI (IGROV1 ovarian) | TGI (K-562 leukemia) | TGI (KM12 colon) | TGI (LOX IMVI melanoma) | TGI (M14 melanoma) | TGI (MALME-3M melanoma) | TGI (MCF7 breast) | TGI (MDA-MB-231 breast) | TGI (MOLT-4 leukemia) | TGI (NCI-H226 lung) | TGI (NCI-H23 lung) | TGI (NCI-H460 lung) | TGI (NCI/ADR-RES ovarian) | TGI (OVCAR-3 ovarian) | TGI (OVCAR-4 ovarian) | TGI (OVCAR-5 ovarian) | TGI (OVCAR-8 ovarian) | TGI (PC-3 prostate) | TGI (SF-268 CNS) | TGI (SF-295 CNS) | TGI (SK-MEL-2 melanoma) | TGI (SK-MEL-28 melanoma) | TGI (SK-OV-3 ovarian) | TGI (SN12C renal) | TGI (SNB-19 CNS) | TGI (SR leukemia) | TGI (SW-620 colon) | TGI (TK-10 renal) | TGI (U251 CNS) | TGI (UACC-257 melanoma) | TGI (UACC-62 melanoma) | TGI (UO-31 renal)
13400 nM: TGI (SNB-75 CNS)
4440 nM: TGI (RXF 393 renal)
active: GI50 (A498 renal) 159 nM | GI50 (CAKI-1 renal) 380 nM | GI50 (HCT-116 colon) 382 nM | GI50 (HCT-15 colon) 285 nM | GI50 (HS 578T breast) 377 nM | GI50 (HT29 colon) 356 nM | GI50 (K-562 leukemia) 284 nM | GI50 (KM12 colon) 358 nM | GI50 (MCF7 breast) 419 nM | GI50 (MDA-MB-435) 176 nM | GI50 (NCI-H460 lung) 381 nM | GI50 (NCI/ADR-RES ovarian) 368 nM | GI50 (SK-MEL-5 melanoma) 406 nM | GI50 (SNB-75 CNS) 404 nM | GI50 (SR leukemia) 230 nM
12100 nM: TGI (NCI-H522 lung)
6180 nM: TGI (HS 578T breast)
832 nM: TGI (A498 renal)
inactive: GI50 (786-0 renal) 1250 nM | GI50 (A549 NSCLC) 714 nM | GI50 (ACHN renal) 800 nM | GI50 (BT-549 breast) 1220 nM | GI50 (CCRF-CEM leukemia) 923 nM | GI50 (COLO 205 colon) 546 nM | GI50 (DU-145 prostate) 2650 nM | GI50 (EKVX NSCLC) 1250 nM | GI50 (HCC-2998 colon) 1740 nM | GI50 (HOP-62 NSCLC) 815 nM | GI50 (HOP-92 NSCLC) 2760 nM | GI50 (IGROV1 ovarian) 592 nM | GI50 (LOX IMVI melanoma) 564 nM | GI50 (M14 melanoma) 457 nM | GI50 (MALME-3M melanoma) 1190 nM | GI50 (MDA-MB-231 breast) 1620 nM | GI50 (MOLT-4 leukemia) 582 nM | GI50 (NCI-H226 lung) 1500 nM | GI50 (NCI-H23 lung) 1260 nM | GI50 (NCI-H522 lung) 594 nM | GI50 (OVCAR-3 ovarian) 479 nM | GI50 (OVCAR-4 ovarian) 2700 nM | GI50 (OVCAR-5 ovarian) 3960 nM | GI50 (OVCAR-8 ovarian) 1310 nM | GI50 (PC-3 prostate) 961 nM | GI50 (RXF 393 renal) 661 nM | GI50 (SF-268 CNS) 1460 nM | GI50 (SF-295 CNS) 809 nM | GI50 (SF-539 CNS) 734 nM | GI50 (SK-MEL-2 melanoma) 758 nM | GI50 (SK-MEL-28 melanoma) 1770 nM | GI50 (SK-OV-3 ovarian) 1820 nM | GI50 (SN12C renal) 1320 nM | GI50 (SNB-19 CNS) 1210 nM | GI50 (SW-620 colon) 435 nM | GI50 (TK-10 renal) 2100 nM | GI50 (U251 CNS) 601 nM | GI50 (UACC-257 melanoma) 2600 nM | GI50 (UACC-62 melanoma) 478 nM | GI50 (UO-31 renal) 1460 nM
525 nM: TGI (MDA-MB-435)
17100 nM: TGI (BT-549 breast)

From PubChem BioAssay (NCI)
